Test results taken from patent US20240327415A1, “Multicomponent Complexes, Including Salts, Crystalline Forms, and Hydrates and Solvates of ENT1 Inhibitors” (iTeos Belgium SA, priority 2023, published 2024).
Counter-ions that a name gives are not always drawn.

Experiments:
Format in all cases: physicochemical
[1] = Dynamic Vapor Sorption (DVS)
Experimental: (§1) METHOD A: In Example 11, approximately 5-15 mg of sample was placed into a mesh vapor sorption balance pan and loaded into either a DVS Intrinsic or DVS Advantage dynamic vapor sorption balance by Surface Measurement Systems. The sample was subjected to a ramping profile from 40-90% relative humidity (RH) at 10% increments, maintaining the sample at each step until a stable weight had been achieved (dm/dt 0.004%, minimum step length 30 minutes, maximum step length 500 minutes) at 25° C. After completion of the sorption cycle, the sample was dried using the same procedure to 0% RH and then a second sorption cycle back to 40% RH was carried out. Two cycles were performed. The weight change during the sorption/desorption cycles were plotted, allowing the hygroscopic nature of the sample to be determined. XRPD analysis was then carried out on the residual solid.
as §1, with “B:” for “A:”, “Examples 2A, 3, 14, and 17,” for “Example 11,”, “10-20” for “5-15”, “determined.” for “determined. XRPD analysis was then carried out on the residual solid.”
as §1, with “Approximately 10-20” for “METHOD A: In Example 11, approximately 5-15”, “RH” for “relative humidity (RH)”, “min,” for “minutes,”, “min)” for “minutes)”, “determined.” for “determined. XRPD analysis was then carried out on the residual solid.”

[2] = Variable Humidity X-Ray Powder Diffraction (VH-XRPD); parameters: key to VH-XRPD XRPD Results: A = amorphous; 1 = Form 1 Compound 1 hydrogen chloride; PC = poorly crystalline
Experimental: (§2) In the examples below, VH-XRPD analysis was carried out on a Philips X'Pert Pro Multipurpose diffractometer equipped with a humidity chamber. The samples were scanned between 4 and 36° 2θ using Cu K radiation (α1λ=1.54060 Å; α2=1.54443 Å; β=1.39225 Å; α1: α2 ratio=0.5; most, if not all, B radiation is removed from the beam using an X-ray mirror) running in Bragg-Brentano geometry (step size 0.008° 2θ) using 40 kV/40 mA generator settings. Measurements were carried out from 2-90% RH, with a final measurement taken at 40% RH.
as §2, with “VH-XRPD” for “In the examples below, VH-XRPD”, “radiation (α1 λ=1.54060” for “radiation (α1λ=1.54060”, “Å; α1:α2” for “Å; α1: α2”, “all, β” for “all, B”, “from 6-90% relative humidity (RH),” for “from 2-90% RH,”

[3] = TG/DSC and DSC thermal analysis; conditions: listed as Crystalline Form 8 Compound 1 mono(hydrogen sulfate)
Experimental: (§3) In the examples below, to measure TGA/DSC, 2-10 mg of material was added into a pre-tared open aluminum pan and loaded into a TA Instruments Discovery SDT 650 Auto—Simultaneous DSC and held at room temperature. The sample was then heated at a rate of 10° C./min from 30° C. to 400° C. during which time the change in sample weight was recorded along with the heat flow response (DSC). Nitrogen was used as the sample purge gas, at a flow rate of 200 cm^3/min.
(§4) METHOD A: In Example 3, 1-5 mg of material was weighed into an aluminum DSC pan and sealed non-hermetically with a pierced aluminum lid. The sample pan was then loaded into a TA DSC2500 and held at 20° C. Once a stable heat-flow response was obtained, the sample and reference were heated to an upper temperature of 200° C. at a scan rate of 10° C./min and the resulting heat flow response monitored. The sample was held at the upper temperature for 3 minutes, before it was cooled at 10° C./min to 20° C., reheated to the upper temperature at 10° C./min, and then cooled again to 20° C. at the same rate. Nitrogen was used as the purge gas, at a flow rate of 50 cm^3/min.
as §4, with “B:” for “A:”, “Examples 2A, 14, and 17,” for “Example 3,”, “−80° C. and then” for “20° C.,”, “C./min.” for “C./min, and then cooled again to 20° C. at the same rate.”
METHOD C: In Example 5, 1-5 mg of a sample were weighed into an aluminum DSC pan and sealed non-hermetically with an aluminum lid. The sample pan was then loaded into a TA Instruments Discovery DSC 2500 differential scanning calorimeter equipped with a RC90 cooler. The sample and reference were heated to 190° C. at a scan rate of 10° C./min and the resulting heat flow response monitored. The sample was re-cooled to −80° C. and then reheated again to 190° C. all at 10° C./min. Nitrogen was used as the purge gas, at a flow rate of 50 cm^3/min.
as §3, with “2-10” for “In the examples below, to measure TGA/DSC, 2-10”, “Auto-Simultaneous” for “Auto—Simultaneous”
as §4, with “1-5” for “METHOD A: In Example 3, 1-5”, “min,” for “minutes,”

[4] = salt screen, XRPD of damp, dried and 40° C./75% RH stored samples (Salt Preparation Methods 1 and 2); parameters: key: A: amorphous; Crystalline Form 10 mono(hydrogen sulfate); conditions: Sulfuric Acid, 1 equiv.
Experimental: Salt Preparation Method 1: Approximately 25 mg of Compound 1 (free base) was weighed out into 1.5 mL screw-cap vials and a stirrer bar was added. For solid counterions, the appropriate amount of acid (1.0 or 2.0 equiv.) was weighed into separate 1.5 mL screw-cap vials. 100 μL of the appropriate solvent system was added to both the Compound 1 and the solid counterions. Stock solutions of liquid counterions were prepared, such that 100 μL contained 1.0 or 2.0 equiv. of acid. See counterion and solvent lists in Table 60 and Table 61 respectively.
The samples were stirred at 40° C. for 5-10 min and then the acid solutions were added to Compound 1, rinsing out the transfer vial with a further 50 μL of solvent. […] Experiments were temperature cycled between 40° C. and 5° C. (1 h hold; 0.1° C./min ramp/cool) for ca. 24-68 h. Anti-solvent addition (ASA) was carried out to slurries at 5° C. then experiments were heated to 30° C. over 1 h. ASA was carried out at 30° C. or 40° C. where clear solutions or gums were observed.
Temperature cycling was then continued for ca. 16-69 h, followed by further ASA and temperature cycling if required. Material was isolated at 5° C. and analyzed damp by XRPD. All isolated material was dried under vacuum at ca. 40° C. for ca. 17-91 h then re-analyzed by XRPD. The XRPD plate was stored at 40° C./75% RH for 24-48 h and then samples re-analyzed. Solutions were stored uncapped at ambient temperature to evaporate. Any residual solids were analyzed by XRPD.
Salt Preparation Method 2: The general procedure adopted in preparing the potential salts is outlined below. A known mass of Compound 1 (free base) and a known volume of the appropriate solvent system were added to 20 mL scintillation vials. The required mol. equiv. of the appropriate counterions were added to the vials as solutions or slurries in the corresponding solvent system.
The experiments were stirred at 40° C. for ca. 1 h, and then temperature cycled between 40° C. and 5° C. with 0.1° C./min ramp and 1 h hold between each step. Anti-solvent additions and subsequent slurrying at 5° C. were employed in order to facilitate crystallization. […] The damp and dried solids were subsampled and analyzed by XRPD. Where applicable, the dried solids were stored at 40° C./75% RH for 24-48 h in order to improve the crystallinity and/or facilitate solid form conversion to the desired form.

COc1cc(C(=O)O[C@@H]2CCCOc3cc(cc(OC)c3OC)C(=O)NCCCN3CCCN(CC2)CC3)cc(OC)c1OC.Cl.Cl
hygroscopicity ([1]; 25° C.): moderate-high hygroscopicity
hysteresis between the sorption and desorption cycles (DVS) ([1]; 25° C. (fumarate: at 20% RH)): ca. 1.3%
post-DVS sample (XRPD / appearance) ([1]; DVS at 25° C.): gum-like material
moisture uptake (DVS) ([1]; between 0-80% RH, second sorption cycle, 25° C.): 18%
moisture uptake (DVS) ([1]; between 40-80% RH, first sorption cycle, 25° C.): ca. 5%
moisture uptake (DVS) ([1]; between 80-90% RH, 25° C.): 9%
relative humidity range in which the form is retained (VH-XRPD) [2]: 7-80 % RH
VH-XRPD XRPD Results ([2]; Desorption (1st), 7% RH, hold 60 min): 1
VH-XRPD XRPD Results ([2]; Desorption (1st), 10% RH, hold 60 min): 1
VH-XRPD XRPD Results ([2]; Desorption (1st), 20% RH, hold 960 min): 1
VH-XRPD XRPD Results ([2]; Desorption (1st), 40% RH, hold 60 min): 1
VH-XRPD XRPD Results ([2]; Desorption (2nd), 40% RH, hold 60 min): 1
VH-XRPD XRPD Results ([2]; Desorption (2nd), 60% RH, hold 60 min): 1
VH-XRPD XRPD Results ([2]; Sorption, 10% RH, hold 60 min): 1
VH-XRPD XRPD Results ([2]; Sorption, 20% RH, hold 60 min): 1
VH-XRPD XRPD Results ([2]; Sorption, 40% RH, hold 60 min): 1
VH-XRPD XRPD Results ([2]; Sorption, 60% RH, hold 60 min): 1
VH-XRPD XRPD Results ([2]; Sorption, 70% RH, hold 60 min): 1
VH-XRPD XRPD Results ([2]; Sorption, 80% RH, hold 60 min): 1

COc1cc(C(=O)O[C@@H]2CCCOc3cc(cc(OC)c3OC)C(=O)NCCCN3CCCN(CC2)CC3)cc(OC)c1OC.O=S(=O)(O)O
TGA/DSC mass loss [3]: 7.2% mass loss
TGA/DSC thermal event, onset ([3]; value before the brackets): 144 °C
TGA/DSC thermal event, peak ([3]; value in brackets): 158 °C

COc1cc(C(=O)O[C@@H]2CCCOc3cc(cc(OC)c3OC)C(=O)NCCCN3CCCN(CC2)CC3)cc(OC)c1OC [Compound 1 mono(hydrogen sulfate)]
XRPD Analysis 40° C. 75% RH ([4]; Acetonitrile, AS tBME): A
XRPD Analysis Damp ([4]; Acetonitrile, AS tBME): A
XRPD Analysis Dry ([4]; Acetonitrile, AS tBME): A
XRPD Analysis 40° C. 75% RH ([4]; Ethanol, AS Heptane): A
XRPD Analysis Damp ([4]; Ethanol, AS Heptane): A
XRPD Analysis Dry ([4]; Ethanol, AS Heptane): A
XRPD Analysis 40° C. 75% RH ([4]; Ethyl acetate, AS Heptane): A
XRPD Analysis Damp ([4]; Ethyl acetate, AS Heptane): A
XRPD Analysis Dry ([4]; Ethyl acetate, AS Heptane): A
XRPD Analysis 40° C. 75% RH ([4]; IPA:H2O (75:25% v/v), AS tBME): 10
XRPD Analysis Damp ([4]; IPA:H2O (75:25% v/v), AS tBME): A
XRPD Analysis Dry ([4]; IPA:H2O (75:25% v/v), AS tBME): A
XRPD Analysis 40° C. 75% RH ([4]; MEK, AS Heptane): 10
XRPD Analysis Damp ([4]; MEK, AS Heptane): A
XRPD Analysis Dry ([4]; MEK, AS Heptane): A
XRPD Analysis 40° C. 75% RH ([4]; THF, AS Heptane): A
XRPD Analysis Damp ([4]; THF, AS Heptane): A
XRPD Analysis Dry ([4]; THF, AS Heptane): A
